# PMC8815882, “Screening the pandemic response box identified benzimidazole carbamates, Olorofim and ravuconazole as promising drug candidates for the treatment of eumycetoma” (PLoS Neglected Tropical Diseases, 2022)
# Where two headings read alike, the source gives them in different places.
# Tested on: M. mycetomatis genome strain MM55
# Test: CLSI M38-A2 based in vitro susceptibility screening (XTT or resazurin), growth at fixed concentration
# Type: cell-based, Madurella mycetomatis
# Settings: Madurella mycetomatis; for Percent fungal survival at 100 µM: read-out: Percentage survival at 100um, 100 uM A (second replicate column)
# [1] = mean of three replicates, read-out: Percentage survival at 25um, 25 uM mean
# [2] = replicate A, read-out: Percentage survival at 25um, 25 um A
# [3] = replicate B, read-out: Percentage survival at 25um, 25 uM B
# [4] = replicate C, read-out: Percentage survival at 25um, 25 uM C
# [5] = mean of three replicates, read-out: Percentage survival at 100um, 100 uM mean
# [6] = replicate 1, read-out: Percentage survival at 100um, 100 uM A (first replicate column)
# [7] = replicate 3, read-out: Percentage survival at 100um, 100 uM A (third replicate column)
# [8] = mean of replicates, read-out: Percentage survival at 25um, 25 uM mean
# [9] = mean of replicates, read-out: Percentage survival at 100um, 100 uM mean
# [10] = replicate 1, read-out: Percentage survival at 100um, 100 uM A
# [11] = replicate 2, read-out: Percentage survival at 100um, 100 uM A
# [12] = replicate 3, read-out: Percentage survival at 100um, 100 uM A
# [13] = mean of replicates, MM55, read-out: Percentage survival at 25um, 25 uM mean
# [14] = replicate A, MM55, read-out: Percentage survival at 25um, 25 um A
# [15] = replicate B, MM55, read-out: Percentage survival at 25um, 25 uM B
# [16] = replicate C, MM55, read-out: Percentage survival at 25um, 25 uM C
# [17] = mean of replicates, MM55, read-out: Percentage survival at 100um, 100 uM mean
# [18] = replicate 1, MM55, read-out: Percentage survival at 100um, 100 uM A
# [19] = replicate 2, MM55, read-out: Percentage survival at 100um, 100 uM A
# [20] = replicate 3, MM55, read-out: Percentage survival at 100um, 100 uM A
# [21] = first replicate column, read-out: Percentage survival at 100um, 100 uM A
# [22] = second replicate column, read-out: Percentage survival at 100um, 100 uM A
# [23] = third replicate column, read-out: Percentage survival at 100um, 100 uM A
# [24] = mean of three, M. mycetomatis MM55, read-out: Percentage survival at 25um, 25 uM mean
# [25] = replicate A, M. mycetomatis MM55, read-out: Percentage survival at 25um, 25 um A
# [26] = replicate B, M. mycetomatis MM55, read-out: Percentage survival at 25um, 25 uM B
# [27] = replicate C, M. mycetomatis MM55, read-out: Percentage survival at 25um, 25 uM C
# [28] = mean of three, M. mycetomatis MM55, read-out: Percentage survival at 100um, 100 uM mean
# [29] = replicate 1, M. mycetomatis MM55, read-out: Percentage survival at 100um, 100 uM A (first replicate column)
# [30] = replicate 2, M. mycetomatis MM55
# [31] = replicate 3, M. mycetomatis MM55, read-out: Percentage survival at 100um, 100 uM A (third replicate column)
compound,measurement,setting,value
CCc1nc2ccc(Cl)cn2c1C(=O)NCc1ccc(N2CCC(c3ccc(OC(F)(F)F)cc3)CC2)cc1 [MMV687696],activity at 25 µM,[1],93.6%
same,activity at 25 µM,[2],95%
same,activity at 25 µM,[3],93.8%
same,activity at 25 µM,[4],91.9%
same,activity at 100 µM,[5],84.8%
same,activity at 100 µM,[6],87.8%
same,Percent fungal survival at 100 µM,replicate 2,86.4%
same,activity at 100 µM,[7],80.3%
Cc1ncc([N+](=O)[O-])n1CC(O)CN1CCOCC1 (stereo not drawn) [MMV1613562],activity at 25 µM,[1],110%
same,activity at 25 µM,[2],99.4%
same,activity at 25 µM,[3],137%
same,activity at 25 µM,[4],94%
same,activity at 100 µM,[5],94.6%
same,activity at 100 µM,[6],93.7%
same,Percent fungal survival at 100 µM,replicate 2,86.5%
same,activity at 100 µM,[7],104%
O=C(Nc1ncc(Cc2cccc3ccccc23)s1)C1CCCCC1 [MMV1593532],activity at 25 µM,[8],92.1%
same,activity at 25 µM,[2],93.7%
same,activity at 25 µM,[3],94.5%
same,activity at 25 µM,[4],88%
same,activity at 100 µM,[9],93.9%
same,activity at 100 µM,[10],107%
same,activity at 100 µM,[11],89%
same,activity at 100 µM,[12],85.1%
Cc1cc(CCCOc2c(C)cc(-c3noc(C(F)(F)F)n3)cc2C)on1 [MMV690467],activity at 25 µM,[13],115%
same,activity at 25 µM,[14],152%
same,activity at 25 µM,[15],84.5%
same,activity at 25 µM,[16],108%
same,activity at 100 µM,[17],79.3%
same,activity at 100 µM,[18],70.9%
same,activity at 100 µM,[19],103%
same,activity at 100 µM,[20],64.3%
O=C(NCCN1CCCCC1)c1cccc(C(F)(F)F)c1 [MMV1633964],activity at 25 µM,[1],86.8%
same,activity at 25 µM,[2],87.8%
same,activity at 25 µM,[3],90.2%
same,activity at 25 µM,[4],82.3%
same,activity at 100 µM,[21],77.6%
same,activity at 100 µM,[5],81.1%
same,activity at 100 µM,[22],90.5%
same,activity at 100 µM,[23],75.1%
O=C(O)COc1cccc2c1CC[C@](O)(COC(=O)N(c1ccccc1)c1ccccc1)C2 [MMV1782352],activity at 25 µM,[13],89.4%
same,activity at 25 µM,[14],92.5%
same,activity at 25 µM,[15],96.3%
same,activity at 25 µM,[16],79.5%
same,activity at 100 µM,[17],88.8%
same,activity at 100 µM,[18],91.1%
same,activity at 100 µM,[19],97.6%
same,activity at 100 µM,[20],77.7%
Cc1cc(C)n2nc(C(=O)NS(=O)(=O)c3c(C)cccc3OC(F)(F)F)nc2n1 [MMV1782402],activity at 25 µM,[1],96.1%
same,activity at 25 µM,[2],98.2%
same,activity at 25 µM,[3],98.8%
same,activity at 25 µM,[4],91.3%
same,activity at 100 µM,[5],91.2%
same,activity at 100 µM,[6],99%
same,Percent fungal survival at 100 µM,replicate 2,92.6%
same,activity at 100 µM,[7],82%
CC1CN(c2ncnc3c2c(-c2ccccc2)cn3-c2ccc(F)cc2)CC(C)O1 (stereo not drawn) [MMV093250],activity at 25 µM,[24],63.7%
same,activity at 25 µM,[25],69.5%
same,activity at 25 µM,[26],65.3%
same,activity at 25 µM,[27],56.2%
same,activity at 100 µM,[28],70%
same,activity at 100 µM,[29],65.7%
same,Percent fungal survival at 100 µM,[30],80.7%
same,activity at 100 µM,[31],63.6%
C[C@@]1(O)[C@H](O)[C@@H](CO)O[C@H]1n1ccc2c(N)ncnc21 [MMV1593519],activity at 25 µM,[1],94.2%
same,activity at 25 µM,[2],94.4%
same,activity at 25 µM,[3],105%
same,activity at 25 µM,[4],83.4%
same,activity at 100 µM,[21],80.2%
same,activity at 100 µM,[5],86.2%
same,activity at 100 µM,[22],92.3%
same,activity at 100 µM,[23],86.2%
CCOc1ccc(C(=O)NCCc2ccccc2)cc1 [MMV124656],activity at 25 µM,[1],89.4%
same,activity at 25 µM,[2],88.1%
same,activity at 25 µM,[3],108%
same,activity at 25 µM,[4],71.9%
same,activity at 100 µM,[5],57.6%
same,activity at 100 µM,[6],63.4%
same,Percent fungal survival at 100 µM,replicate 2,48.9%
same,activity at 100 µM,[7],60.4%
Fc1ccc(-n2cc(Cn3c(-c4cccc(F)c4)nc4ccccc43)nn2)cc1 [MMV1580850],activity at 25 µM,[24],60.8%
same,activity at 25 µM,[25],55.7%
same,activity at 25 µM,[26],55.1%
same,activity at 25 µM,[27],71.7%
same,activity at 100 µM,[28],85.9%
same,activity at 100 µM,[29],71.4%
same,Percent fungal survival at 100 µM,[30],60.3%
same,activity at 100 µM,[31],126%
Fc1ccc(-c2nc(-c3c[nH]c4ccc(Br)cc34)[nH]c2-c2ccc(F)cc2)cc1 [MMV1593537],activity at 25 µM,[24],61.4%
same,activity at 25 µM,[25],38%
same,activity at 25 µM,[26],20.2%
same,activity at 25 µM,[27],126%
same,activity at 100 µM,[28],3.84%
same,activity at 100 µM,[29],4.18%
same,Percent fungal survival at 100 µM,[30],1.82%
same,activity at 100 µM,[31],5.52%
COc1cc(C(C(=O)NC2CCCCC2)N(C(=O)Cc2c[nH]c3ccccc23)c2ccc(C(C)C)cc2)cc(OC)c1OC (stereo not drawn) [MMV1593544],activity at 25 µM,[13],98.2%
same,activity at 25 µM,[14],107%
same,activity at 25 µM,[15],106%
same,activity at 25 µM,[16],81.3%
same,activity at 100 µM,[17],88.5%
same,activity at 100 µM,[18],98%
same,activity at 100 µM,[19],88.7%
same,activity at 100 µM,[20],78.7%
CC(C)Oc1cccc(NC(=O)c2ccccc2C(F)(F)F)c1 [MMV1009286],activity at 25 µM,"mean, read-out: Percentage survival at 25um, 25 uM mean",61%
same,activity at 25 µM,[2],87.9%
same,activity at 25 µM,[3],37.1%
same,activity at 25 µM,[4],58%
same,activity at 100 µM,"mean, read-out: Percentage survival at 100um, 100 uM mean",39%
same,activity at 100 µM,"replicate (first column), read-out: Percentage survival at 100um, 100 uM A",26.3%
same,activity at 100 µM,"replicate (second column), read-out: Percentage survival at 100um, 100 uM A",52.4%
same,activity at 100 µM,"replicate (third column), read-out: Percentage survival at 100um, 100 uM A",38.1%
CCc1nc(N)nc(N)c1C#CCc1ccccc1 [MMV1581549],activity at 25 µM,[1],92.3%
same,activity at 25 µM,[2],59.8%
same,activity at 25 µM,[3],78.6%
same,activity at 25 µM,[4],138%
same,activity at 100 µM,[5],2.68%
same,activity at 100 µM,[6],1.33%
same,Percent fungal survival at 100 µM,replicate 2,1.24%
same,activity at 100 µM,[7],5.46%
COc1ccccc1NC(=O)c1ccccc1Sc1ccc([N+](=O)[O-])cc1 [MMV1580484],activity at 25 µM,[1],65.2%
same,activity at 25 µM,[2],65.9%
same,activity at 25 µM,[3],69.7%
same,activity at 25 µM,[4],60.2%
same,activity at 100 µM,[21],60.9%
same,activity at 100 µM,[5],60.4%
same,activity at 100 µM,[22],56%
same,activity at 100 µM,[23],64.4%
CC(=O)N[C@H](C)C(=O)N[C@H](Cc1ccccc1)C(=O)O [MMV1580845],activity at 25 µM,[1],87.9%
same,activity at 25 µM,[2],86.4%
same,activity at 25 µM,[3],86.8%
same,activity at 25 µM,[4],90.5%
same,activity at 100 µM,[5],86.9%
same,activity at 100 µM,[6],88.3%
same,Percent fungal survival at 100 µM,replicate 2,84.1%
same,activity at 100 µM,[7],88.3%
C[C@H]1CC[C@@]2(O)C(C)(C)[C@@H]3CC[C@@]2(C)[C@H]1C3 [MMV1578556],activity at 25 µM,[24],75.9%
same,activity at 25 µM,[25],69.5%
same,activity at 25 µM,[26],83.8%
same,activity at 25 µM,[27],74.3%
same,activity at 100 µM,[28],84.9%
same,activity at 100 µM,[29],79.8%
same,Percent fungal survival at 100 µM,[30],92.6%
same,activity at 100 µM,[31],82.4%
COc1cc(Cc2cc(N)nc(N)n2)cc(OC)c1OC [MMV1579846],activity at 25 µM,[8],80.9%
same,activity at 25 µM,[2],87.9%
same,activity at 25 µM,[3],75.2%
same,activity at 25 µM,[4],79.5%
same,activity at 100 µM,[9],95.4%
same,activity at 100 µM,[10],83.5%
same,activity at 100 µM,[11],94.2%
same,activity at 100 µM,[12],108%
COc1cccc(N2CCN(C3=Nc4c(F)cccc4[C@H](CC(=O)O)N3c3cc(C(F)(F)F)ccc3OC)CC2)c1 [MMV690653],activity at 25 µM,[1],91%
same,activity at 25 µM,[2],89.7%
same,activity at 25 µM,[3],103%
same,activity at 25 µM,[4],80%
same,activity at 100 µM,[21],86.6%
same,activity at 100 µM,[5],86.8%
same,activity at 100 µM,[22],87.2%
same,activity at 100 µM,[23],86.5%
CC(C)Nc1nc2cc(Cl)c(Cl)cc2n1[C@H]1O[C@@H](CO)[C@H](O)[C@@H]1O [MMV1593521],activity at 25 µM,[13],93.6%
same,activity at 25 µM,[14],104%
same,activity at 25 µM,[15],89.6%
same,activity at 25 µM,[16],87%
same,activity at 100 µM,[17],81.8%
same,activity at 100 µM,[18],90.8%
same,activity at 100 µM,[19],82%
same,activity at 100 µM,[20],72.5%
